Holding throughout (experiment): relative viability (nuclei count vs DMSO), 5 days (fraction); higher = more cells survive
Compound in assay [1]: Cc1ccc(C(=O)N(CCCN)[C@@H](c2nc3cc(Cl)ccc3c(=O)n2Cc2ccccc2)C(C)C)cc1 [Ispinesib] + COc1cccc2cc(-c3nc([C@H]4CC[C@H](C(=O)O)CC4)n4ncnc(N)c34)[nH]c12 [OSI-027] (partner 0.5 µM)
The essentials: (§1)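 A single step with final 0.05% Triton X-100, 1% formaldehyde and 1 ug/ml Hoechst fixed the cells and stained nuclei 5 days after treatment. Lung cancer cell lines in 1536-well plates had been treated by pin tool the day after seeding with one drug alone or a fixed anchor-drug dose plus five library-drug doses (not always all listed) in √10 steps, and nuclei were counted on 4× images. Relative viability is the ratio of nuclei in treated wells to nuclei in vehicle wells, taken as the median of duplicate plates.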

Compound in assay [2]: Cc1ccc(C(=O)N(CCCN)[C@@H](c2nc3cc(Cl)ccc3c(=O)n2Cc2ccccc2)C(C)C)cc1 [Ispinesib] + NC(=O)Nc1cc(-c2cccc(F)c2)sc1C(=O)N[C@H]1CCCNC1 [AZD7762] (partner 0.2 µM)
In a few lines: as §1

Compound in assay [3]: C[C@]1(O)C[C@@H](c2nc(-c3ccc4ccc(-c5ccccc5)nc4c3)c3c(N)nccn32)C1 [Linsitinib] + Cc1cc(Nc2cc(N3CCN(C)CC3)nc(Sc3ccc(NC(=O)C4CC4)cc3)n2)n[nH]1 [Tozasertib] (partner 0.1 µM)
In a few lines:
as §1

Compound in assay [4]: Cc1ccc(C(=O)N(CCCN)[C@@H](c2nc3cc(Cl)ccc3c(=O)n2Cc2ccccc2)C(C)C)cc1 [Ispinesib] + COc1cc2c(Oc3ccc(NC(=O)C4(C(=O)Nc5ccc(F)cc5)CC4)cc3F)ccnc2cc1OCCCN1CCOCC1 [Foretinib] (partner 0.25 µM)
The essentials: as §1

Turning to NCI-H2126, the relative viability in assay [1] (first compound 0.001 µM) turned out to be 0.757; in assay [1] (first compound 0.003162 µM) it was 0.894; in assay [1] (first compound 0.01 µM) it was 0.674; in assay [1] (first compound 0.03162 µM), 0.664; in assay [1] (first compound 0.1 µM), 0.63; in assay [2] (first compound 0.001 µM), 1.04. Besides, the relative viability is 1.08 in assay [2] (first compound 0.003162 µM); 1.2 in assay [2] (first compound 0.01 µM); 1.03 in assay [2] (first compound 0.03162 µM); 0.591 in assay [2] (first compound 0.1 µM); 0.768 in assay [3] (first compound 0.01 µM); 0.828 in assay [3] (first compound 0.03162 µM). The relative viability in assay [3] (first compound 0.1 µM) was found to be 0.767; in assay [3] (first compound 0.3162 µM) it was 0.727; in assay [3] (first compound 1 µM) it was 0.646; in assay [4] (first compound 0.001 µM), 1.27; in assay [4] (first compound 0.003162 µM) it was 1.35; in assay [4] (first compound 0.01 µM) it was 1.39. The results for the relative viability in assay [4] (first compound 0.03162 µM) and in assay [4] (first compound 0.1 µM) were 1.14 and 1.03, respectively.

Consider LU99A, for which the relative viability in assay [1] (first compound 0.001 µM) came to 0.268; in assay [1] (first compound 0.003162 µM), 0.294; in assay [1] (first compound 0.01 µM), 0.299; in assay [1] (first compound 0.03162 µM), 0.264; in assay [1] (first compound 0.1 µM), 0.189; in assay [2] (first compound 0.001 µM), 0.474. The relative viability amounted to 0.368 in assay [2] (first compound 0.003162 µM); 0.394 in assay [2] (first compound 0.01 µM); 0.161 in assay [2] (first compound 0.03162 µM); 0.14 in assay [2] (first compound 0.1 µM); 0.284 in assay [3] (first compound 0.01 µM); 0.27 in assay [3] (first compound 0.03162 µM). The relative viability came out at 0.281 in assay [3] (first compound 0.1 µM); 0.264 in assay [3] (first compound 0.3162 µM); 0.234 in assay [3] (first compound 1 µM); 0.835 in assay [4] (first compound 0.001 µM); 0.858 in assay [4] (first compound 0.003162 µM); 0.814 in assay [4] (first compound 0.01 µM). The relative viability amounted to 0.55 in assay [4] (first compound 0.03162 µM) and 0.428 in assay [4] (first compound 0.1 µM).

With NCI-H23, the relative viability came out at 0.581 in assay [1] (first compound 0.001 µM); 0.656 in assay [1] (first compound 0.003162 µM); 0.808 in assay [1] (first compound 0.01 µM); 0.235 in assay [1] (first compound 0.03162 µM); 0.201 in assay [1] (first compound 0.1 µM); 0.202 in assay [2] (first compound 0.001 µM). For the same cell line, the relative viability came out at 0.254 in assay [2] (first compound 0.003162 µM); 0.274 in assay [2] (first compound 0.01 µM); 0.184 in assay [2] (first compound 0.03162 µM); 0.157 in assay [2] (first compound 0.1 µM); 0.365 in assay [3] (first compound 0.01 µM); 0.485 in assay [3] (first compound 0.03162 µM). The relative viability in assay [3] (first compound 0.1 µM) turned out to be 0.372; in assay [3] (first compound 0.3162 µM), 0.437; in assay [3] (first compound 1 µM), 0.331; in assay [4] (first compound 0.001 µM) it was 1.05; in assay [4] (first compound 0.003162 µM) it was 1.03; in assay [4] (first compound 0.01 µM) it was 1.17. The figures for the relative viability in assay [4] (first compound 0.03162 µM) and in assay [4] (first compound 0.1 µM) were 0.934 and 0.299, respectively.

Consider PC-14, for which the relative viability came to 0.983 in assay [1] (first compound 0.001 µM); 0.791 in assay [1] (first compound 0.003162 µM); 0.256 in assay [1] (first compound 0.01 µM); 0.0319 in assay [1] (first compound 0.03162 µM); 0.0859 in assay [1] (first compound 0.1 µM); 0.44 in assay [2] (first compound 0.001 µM). Also, the relative viability stood at 0.484 in assay [2] (first compound 0.003162 µM); 0.388 in assay [2] (first compound 0.01 µM); 0.142 in assay [2] (first compound 0.03162 µM); 0.111 in assay [2] (first compound 0.1 µM); 0.559 in assay [3] (first compound 0.01 µM); 0.542 in assay [3] (first compound 0.03162 µM). The relative viability amounted to 0.578 in assay [3] (first compound 0.1 µM); 0.486 in assay [3] (first compound 0.3162 µM); 0.427 in assay [3] (first compound 1 µM); 1.02 in assay [4] (first compound 0.001 µM); 1.09 in assay [4] (first compound 0.003162 µM); 1.23 in assay [4] (first compound 0.01 µM). The relative viability in assay [4] (first compound 0.03162 µM) was found to be 0.917; in assay [4] (first compound 0.1 µM), 0.186.

Consider A-427, for which the relative viability was 0.508 in assay [1] (first compound 0.001 µM); 0.449 in assay [1] (first compound 0.003162 µM); 0.571 in assay [1] (first compound 0.01 µM); 0.155 in assay [1] (first compound 0.03162 µM); 0.181 in assay [1] (first compound 0.1 µM); 0.853 in assay [2] (first compound 0.001 µM). In addition, the relative viability in assay [2] (first compound 0.003162 µM) is 0.817; in assay [2] (first compound 0.01 µM), 0.976; in assay [2] (first compound 0.03162 µM) it was 0.462; in assay [2] (first compound 0.1 µM) it was 0.32; in assay [3] (first compound 0.01 µM) it was 0.211; in assay [3] (first compound 0.03162 µM) it was 0.222. For the same cell line, the relative viability was determined as 0.234 in assay [3] (first compound 0.1 µM); 0.177 in assay [3] (first compound 1 µM); 1.06 in assay [4] (first compound 0.001 µM); 1.22 in assay [4] (first compound 0.003162 µM); 1.16 in assay [4] (first compound 0.01 µM); 1.07 in assay [4] (first compound 0.03162 µM). For the same cell line, the relative viability in assay [4] (first compound 0.1 µM) is 0.762.

As for NCI-H596, the relative viability turned out to be 0.818 in assay [1] (first compound 0.001 µM); 0.674 in assay [1] (first compound 0.003162 µM); 0.951 in assay [1] (first compound 0.01 µM); 0.625 in assay [1] (first compound 0.03162 µM); 0.29 in assay [1] (first compound 0.1 µM); 1.2 in assay [2] (first compound 0.001 µM). Further, the relative viability in assay [2] (first compound 0.003162 µM) was found to be 0.683; in assay [2] (first compound 0.01 µM), 1.19; in assay [2] (first compound 0.03162 µM), 1.15; in assay [2] (first compound 0.1 µM) it was 0.423; in assay [3] (first compound 0.01 µM) it was 0.889; in assay [3] (first compound 0.03162 µM), 0.948. Besides, the relative viability in assay [3] (first compound 0.1 µM) came out at 0.822; in assay [3] (first compound 0.3162 µM), 0.724; in assay [3] (first compound 1 µM), 0.812; in assay [4] (first compound 0.001 µM) it was 0.87; in assay [4] (first compound 0.003162 µM) it was 0.859; in assay [4] (first compound 0.01 µM), 0.791. Moreover, the results for the relative viability in assay [4] (first compound 0.03162 µM) and in assay [4] (first compound 0.1 µM) were 0.795 and 0.434, respectively.

Turning to RERF-LC-KJ, the relative viability in assay [1] (first compound 0.001 µM) stood at 0.527; in assay [1] (first compound 0.003162 µM), 0.541; in assay [1] (first compound 0.01 µM), 0.405; in assay [1] (first compound 0.03162 µM), 0.246; in assay [1] (first compound 0.1 µM), 0.268; in assay [2] (first compound 0.001 µM), 0.88. Further, the relative viability in assay [2] (first compound 0.003162 µM) turned out to be 1.1; in assay [2] (first compound 0.01 µM), 1.07; in assay [2] (first compound 0.03162 µM) it was 0.701; in assay [2] (first compound 0.1 µM) it was 0.243; in assay [3] (first compound 0.01 µM) it was 0.508; in assay [3] (first compound 0.03162 µM), 0.558. Moreover, the relative viability in assay [3] (first compound 0.1 µM) was 0.573; in assay [3] (first compound 0.3162 µM), 0.523; in assay [3] (first compound 1 µM) it was 0.441; in assay [4] (first compound 0.001 µM) it was 0.875; in assay [4] (first compound 0.003162 µM) it was 0.9; in assay [4] (first compound 0.01 µM) it was 0.976. For the same cell line, the results for the relative viability in assay [4] (first compound 0.03162 µM) and in assay [4] (first compound 0.1 µM) were 0.91 and 0.257, respectively.

Values taken from the supplement of paper PMC10307832.
